Reference: the NIST ThermoML archive (doi:10.1021/je100720x)

Assay: osmotic coefficient (dimensionless); mn = molality of the nth substance listed, in mol/kg
Conditions: 298.15 K, Liquid, isopiestic method

CCn1cc[n+](C)c1.[Br-] [1-ethyl-3-methylimidazolium bromide] + O
Conditions	osmotic coefficient
m1 = 0.5514	0.811
m1 = 0.6588	0.801
m1 = 0.6883	0.799
m1 = 0.7764	0.795
m1 = 0.9367	0.787
m1 = 1.04	0.786
m1 = 1.943	0.763
m1 = 2.308	0.757
m1 = 2.542	0.759
m1 = 3.189	0.763
m1 = 4.359	0.786
m1 = 5.41	0.821
m1 = 7.17	0.883

O=P([O-])([O-])O.[K+].[K+] [dipotassium hydrogen phosphate] + O
Conditions	osmotic coefficient
m1 = 0.6496	0.711
m1 = 0.7592	0.704
m1 = 1.112	0.69
m1 = 1.251	0.69
m1 = 1.604	0.689
m1 = 1.712	0.694
m1 = 1.965	0.696
m1 = 2.163	0.709

O=P([O-])(O)O.[K+] [monopotassium phosphate] + O
Conditions	osmotic coefficient
m1 = 0.6269	0.8
m1 = 0.9843	0.744
m1 = 1.113	0.731
m1 = 1.228	0.717
m1 = 1.27	0.715
m1 = 1.508	0.696
m1 = 1.707	0.68

O=P([O-])([O-])[O-].[K+].[K+].[K+] [tripotassium phosphate] + O
Conditions	osmotic coefficient
m1 = 0.4308	0.694
m1 = 0.5142	0.698
m1 = 0.6347	0.705
m1 = 0.7575	0.708
m1 = 0.8132	0.716
m1 = 1.002	0.744
m1 = 1.012	0.745
m1 = 1.241	0.778
m1 = 1.695	0.866
m1 = 1.83	0.893
